# Source: patent publication US9499467B2, “Ortho-fluoro substituted compounds for the treatment of metabolic diseases” (CALDAN THERAPEUTICS LIMITED, priority 2011, dated 2016)
# Target: T1, GPR40 (Homo sapiens, UniProt O14842)
# T1 construct: expressed in transfected cells
# Assay: Calcium mobilization in GPR40-transfected cells
# Assay type: cell-based
# Settings: calcium mobilization in GPR40-transfed cells
# Protocol: The compounds were tested for their ability to mobilize calcium in GPR40-transfed cells as described by Christiansen et al. (J. Med. Chem. 2011, 54, 6691-6703).
# T1 sequence (O14842 whole entry): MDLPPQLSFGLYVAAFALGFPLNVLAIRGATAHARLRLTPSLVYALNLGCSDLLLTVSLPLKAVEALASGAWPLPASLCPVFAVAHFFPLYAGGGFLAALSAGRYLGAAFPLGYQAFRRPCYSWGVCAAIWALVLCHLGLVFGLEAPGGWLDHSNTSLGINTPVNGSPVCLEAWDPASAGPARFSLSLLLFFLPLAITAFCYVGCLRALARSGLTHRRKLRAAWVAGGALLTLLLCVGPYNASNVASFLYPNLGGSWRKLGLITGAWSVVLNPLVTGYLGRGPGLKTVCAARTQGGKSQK
row,Compound,GPR40 activity (pEC50)
1,"O=C(O)CCc1c(F)cc(C#Cc2ccccc2)cc1F [Example 10, 3-(2,6-Difluoro-4-(phenylethynyl)phenyl)propanoic acid]",6.85
2,"C/C=C(\C)C#Cc1ccc(CCC(=O)O)c(F)c1 [Example 4, (E)-3-(2-Fluoro-4-(3-methylpent-3-en-1-yn-1-yl)phenyl)propanoic acid]",7.43
3,"Cc1ccccc1C#Cc1ccc(CCC(=O)O)c(F)c1 [Example 5, 3-(2-Fluoro-4-(o-tolylethynyl)phenyl)propanoic acid]",7.48
4,"C=C(C)C#Cc1ccc(CCC(=O)O)c(F)c1 [Example 2, 3-(2-Fluoro-4-(3-methylbut-3-en-1-yn-1-yl)phenyl)propanoic acid]",7.09
5,"C/C(C#Cc1ccc(CCC(=O)O)c(F)c1)=C/CO [Example 12, (Z)-3-(2-Fluoro-4-(5-hydroxy-3-methylpent-3-en-1-yn-1-yl)phenyl)propanoic acid]",6.37
6,"O=C(O)CCc1ccc(C#Cc2ccccc2)c(F)c1 [Example 11, 3-(3-Fluoro-4-(phenylethynyl)phenyl)propanoic acid]",6.84
7,"O=C(O)CCc1ccc(C#Cc2cc(F)ccc2C(F)F)cc1F [Example 14, 3-(4-((2-(Difluoromethyl)-5-fluorophenyl)ethynyl)-2-fluorophenyl)propanoic acid]",7.74
8,"CS(=O)(=O)Cc1cccc(C#Cc2ccc(CCC(=O)O)c(F)c2)c1 [Example 9, 3-(2-Fluoro-4-((3-((methylsulfonyl)methyl)phenyl)ethynyl)phenyl)propanoic acid]",5.71
9,"Cc1ccc(C#N)cc1C#Cc1ccc(CCC(=O)O)c(F)c1 [Example 7, 3-(4-((5-Cyano-2-methylphenyl)ethynyl)-2-fluorophenyl)propanoic acid]",7.77
10,"CS(=O)(=O)Cc1ccccc1C#Cc1ccc(CCC(=O)O)c(F)c1 [Example 8, 3-(2-Fluoro-4-((2-((methylsulfonyl)methyl)phenyl)ethynyl)phenyl)propanoic acid]",5.84
11,"O=C(O)CCc1ccc(C#Cc2cc(Cl)cc(Cl)c2)cc1F [Example 13, 3-(4-((3,5-Dichlorophenyl)ethynyl)-2-fluorophenyl)propanoic acid]",7.42
12,"C/C=C(/C)C#Cc1ccc(CCC(=O)O)c(F)c1 [Example 3, (Z)-3-(2-Fluoro-4-(3-methylpent-3-en-1-yn-1-yl)phenyl)propanoic acid]",7.69
13,"O=C(O)CCc1ccc(C#Cc2ccccc2)cc1F [Example 1, 3-(2-Fluoro-4-(phenylethynyl)phenyl)propanoic acid]",7.48
